The results in this text go back to US8658661B2, “Oxadiazole inhibitors of leukotriene production” (Boehringer Ingelheim International GmbH, priority 2010, dated 2014).

The term IC50 denotes the concentration that gives 50% inhibition.

Test [1] deals with synthesis of LTB4 in human whole blood. The test can be described thus: Human whole blood assay (inhibition of LTB4 synthesis, calcimycin stimulated). It is filed as cell-based. As to conditions: heparinized human whole blood, calcimycin 20 μM, plasma LTB4. The method in brief: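 LTB4 in plasma was quantified by HTRF immunoassay. Before that, compound-treated heparinized whole blood (15 min, 37 °C) received 20 μM final calcimycin for a further 30 min at 37 °C, followed by centrifugation at 1500×g.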

The target of test [2] is T1, recombinant human FLAP protein (Homo sapiens, UniProt P20292).
T1 construct: made in house; host or cells: Sf9 insect cells (100,000×g membrane pellet used)
T1 sequence (P20292 1-161): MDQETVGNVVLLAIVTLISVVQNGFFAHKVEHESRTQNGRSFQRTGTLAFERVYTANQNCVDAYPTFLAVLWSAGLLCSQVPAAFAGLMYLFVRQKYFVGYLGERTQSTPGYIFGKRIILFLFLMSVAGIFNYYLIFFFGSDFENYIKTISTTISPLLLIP
The test can be described thus: FLAP binding assay (SPA, displacement of [125I]L-691,831). As to conditions: membranes of sf9 cells expressing recombinant human FLAP; [125I]L-691,831 probe; read-out: FLAP binding IC50. Put shortly: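 Membranes from sf9 cells expressing human FLAP in pH 7.5 Tris buffer (MgCl2, EDTA, PMSF). Non-specific binding defined with 10 μM cold L-691,831.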
(In general: In a radioligand displacement assay an active substance lowers the binding of a labelled ligand.)

Bounds are passed on as bounds.

With `CN(C)CCn1cc(-c2nc([C@@](C)(c3ccc(-c4cnc(N)nc4)cc3)C3CC3)no2)cn1` [Example 182, 5-[4-((R)-1-Cyclopropyl-1-{5-[1-(2-dimethylamino-ethyl)-1H-pyrazol-4-yl]-[1,2,4]oxadiazol-yl}-ethyl)-phenyl]-pyrimidin-2-ylamine], the figures for the IC50 in test [1] and in test [2] were 14 nM and 3.1 nM, respectively.
For `COCCNc1cnc(-c2nc([C@](C)(c3ccc(-c4cnc(N)nc4)cc3)C(C)C)no2)cn1` [Example 124, 5-{4-[(2S)-2-(5-{5-[(2-methoxyethyl)amino]pyrazin-2-yl} 1,2,4-oxadiazol-3-yl)-3-methylbutan-2-yl]phenyl}pyrimidin-2-amine], in that order: 31 nM and 2.3 nM.
The matching figures for `Cc1ncoc1-c1nc(C(C)(c2ccc(-c3cnc(N)nc3)cc2)C(C)C)no1` (stereo not shown) [Example 140, 5-(4-{3-methyl-2-[5-(4-methyl-1,3-oxazol-5-yl)-1,2,4-oxadiazol-3-yl]butan-2-yl}phenyl)pyrimidin-2-amine]: 710 nM and 4.1 nM.
As for `CC(C)C(C)(c1ccc(-c2cnc(N)nc2)cc1)c1noc(-c2cnn(C(C)(C)C(=O)O)c2)n1` (stereo not shown) [Example 160, 2-[4-(3-{2-[4-(2-aminopyrimidin-5-yl)phenyl]-3-methylbutan-2-yl}-1,2,4-oxadiazol-5-yl)-1H-pyrazol-1-yl]-2-methylpropanoic acid], the IC50 in test [1] is above 5000 nM; in test [2] it was 9 nM.
In the case of `CC(C)(O)CNc1ccc(-c2nc(C(C)(C)c3ccc(-c4cnc(N)nc4)cc3)no2)cn1` [Example 70, 1-{[5-(3-{2-[4-(2-aminopyrimidin-5-yl)phenyl]propan-2-yl}-1,2,4-oxadiazol-5-yl)pyridin-2-yl]amino}-2-methylpropan-2-ol], the 50% inhibitory concentration (IC50) in test [1] stood at 590 nM; in test [2], 7.1 nM.
For `CN(C)C(=O)Cn1cc(-c2nc(C(C)(c3ccc(-c4cnc(N)c(C(F)(F)F)n4)cc3)C3CC3)no2)cn1` (stereo not shown) [Example 289, 2-[4-(3-{1-[4-(5-Amino-6-trifluoromethyl-pyrazin-2-yl)-phenyl]-1-cyclopropyl-ethyl}-[1,2,4]oxadiazol-5-yl)-pyrazol-1-yl]-N,N-dimethyl-acetamide], in that order: 1000 nM and 22 nM.
For the molecule `CC(C)[C@@](C)(c1ccc(-c2cnc(N)nc2)cc1)c1noc(-c2cn[nH]c2)n1` [Example 78, 5-(4-{(2S)-3-methyl-2-[5-(1H-pyrazol-4-yl)-1,2,4-oxadiazol-3-yl]butan-2-yl}phenyl)pyrimidin-2-amine], the IC50 in test [1] is 240 nM; in test [2], 1.3 nM.
The matching figures for `CN(C)C(=O)Cn1cc(-c2nc(C(C)(c3ccc(-c4cnc(N)nc4)cc3)C3CCC3)no2)cn1` (stereo not shown) [Example 97, 2-[4-(3-{1-[4-(2-aminopyrimidin-5-yl)phenyl]-1-cyclobutylethyl}-1,2,4-oxadiazol-5-yl)-1H-pyrazol-1-yl]-N,N-dimethylacetamide]: 170 nM and 8.8 nM.
On to `C[C@@](c1ccc(-c2ccc(N)nc2)cc1)(c1noc(-c2cnn(C3COC3)c2)n1)C1CC1` [Example 263, 5-(4-{(R)-1-Cyclopropyl-1-[5-(1-oxetan-3-yl-1H-pyrazol-4-yl)-[1,2,4]oxadiazol-3-yl]-ethyl}-phenyl)-pyridin-2-ylamine], for which the IC50 was 21 nM in test [1] and 3.5 nM in test [2].
On to `Cn1cnc(-c2nc(C(C)(c3ccc(-c4cnc(N)nc4)cc3)C3CC3)no2)c1` (stereo not shown) [Example 28, 5-(4-{1-cyclopropyl-1-[5-(1-methyl-1H-imidazol-4-yl)-1,2,4-oxadiazol-3-yl]ethyl}phenyl)pyrimidin-2-amine], for which the IC50 in test [1] worked out at 320 nM; in test [2], 26 nM.
Consider `COCCn1cc(-c2nc([C@](C)(c3ccc(-c4cnc(N)nc4)cc3)C3CCC3)no2)cn1` [Example 101, 5-{4-[(1S)-1-cyclobutyl-1-{5-[1-(2-methoxyethyl)-1H-pyrazol-4-yl]-1,2,4-oxadiazol-3-yl}ethyl]phenyl}pyrimidin-2-amine], for which the figures for the IC50 in test [1] and in test [2] were above 5000 nM and 280 nM, respectively.
As to `CC(C)C(C)(c1ccc(-c2cnc(N)nc2)cc1)c1noc(-c2ccc(C#N)nc2)n1` (stereo not shown) [Example 128, 5-(3-{2-[4-(2-aminopyrimidin-5-yl)phenyl]-3-methylbutan-2-yl}-1,2,4-oxadiazol-5-yl)pyridine-2-carbonitrile], the figures for the IC50 in test [1] and in test [2] were 240 nM and 1.6 nM, respectively.
For `COc1ccncc1-c1nc(C(C)(c2ccc(-c3cnc(N)nc3)cc2)C(C)C)no1` (stereo not shown) [Example 11, 5-(4-{2-[5-(4-methoxypyridin-3-yl)-1,2,4-oxadiazol-3-yl]-3-methylbutan-2-yl}phenyl)pyrimidin-2-amine], the IC50 in test [1] was 89 nM; in test [2], 1.9 nM.
Turning to `CC(=O)N1CCN(c2nc(C(C)(c3ccc(-c4cnc(N)nc4)cc3)C(C)C)no2)CC1` (stereo not shown) [Example 169, 1-[4-(3-{1-[4-(2-Amino-pyrimidin-5-yl)-phenyl]-1,2-dimethyl-propyl}-[1,2,4]oxadiazol-5-yl)-piperazin-1-yl]-ethanone], the results for the IC50 in test [1] and in test [2] were 370 nM and 14 nM, respectively.
Consider `CC(C)(c1ccc(-c2cnc(N)nc2)cc1)c1noc(-c2ccc(NCCS(C)(=O)=O)nc2)n1` [Example 71, 5-(4-{2-[5-(6-{[2-(methylsulfonyl)ethyl]amino}pyridin-3-yl)-1,2,4-oxadiazol-3-yl]propan-2-yl}phenyl)pyrimidin-2-amine], for which the IC50 came out at 900 nM in test [1] and 17 nM in test [2].
Consider `CC(C)C(C)(c1ccc(-c2cnc(N)nc2)cc1)c1noc(-c2ccnnc2)n1` (stereo not shown) [Example 147, 5-(4-{3-methyl-2-[5-(pyridazin-4-yl)-1,2,4-oxadiazol-3-yl]butan-2-yl}phenyl)pyrimidin-2-amine], for which the IC50 amounted to 86 nM in test [1] and 2.7 nM in test [2].
Take `C[C@](c1ccc(-c2cnc(N)nc2)cc1)(c1noc(-c2cnn(C3COC3)c2)n1)C1CC1` [Example 55, 5-{4-[(1S)-1-cyclopropyl-1-{5-[1-(oxetan-3-yl)-1H-pyrazol-4-yl]-1,2,4-oxadiazol-3-yl}ethyl]phenyl}pyrimidin-2-amine]: the IC50 in test [1] worked out at 200 nM; in test [2], 11 nM.
For `CCC(C)(c1ccc(-c2cnc(N)nc2)cc1)c1noc(-c2ccc(C)nc2)n1` (stereo not shown) [Example 143, 5-(4-{2-[5-(6-methylpyridin-3-yl)-1,2,4-oxadiazol-3-yl]butan-2-yl}phenyl)pyrimidin-2-amine], in that order: 360 nM and 4.1 nM.
The matching figures for `CC(C)C(C)(c1ccc(-c2cnc(N)nc2)cc1)c1noc(N2CCNC(=O)C2)n1` (stereo not shown) [Example 199, 4-(3-{1-[4-(2-Amino-pyrimidin-5-yl)-phenyl]-1,2-dimethyl-propyl}-[1,2,4]oxadiazol-5-yl)-piperazin-2-one]: 690 nM and 32 nM.
The matching figures for `CC(C)C(C)(c1ccc(-c2cnc(N)nc2)cc1)c1noc(C2(C(=O)O)CCCCC2)n1` (stereo not shown) [Example 145, 1-(3-{2-[4-(2-aminopyrimidin-5-yl)phenyl]-3-methylbutan-2-yl}-1,2,4-oxadiazol-5-yl)cyclohexanecarboxylic acid]: 2500 nM and 17 nM.
With `C[C@](c1ccc(-c2cnc(N)nc2)cc1)(c1noc(-c2cn[nH]c2)n1)C1CC1` [Example 49, 5-(4-{(1S)-1-cyclopropyl-1-[5-(1H-pyrazol-4-yl)-1,2,4-oxadiazol-3-yl]ethyl}phenyl)pyrimidin-2-amine], the figures for the half-maximal inhibitory concentration (IC50) in test [1] and in test [2] were 680 nM and 19 nM, respectively.
As to `CC(C)(O)Cn1cc(-c2nc([C@@](C)(c3ccc(-c4cnc(N)cn4)cc3)C3CC3)no2)cn1` [Example 175, 1-[4-(3-{(R)-1-[4-(5-Amino-pyrazin-2-yl)-phenyl]-1-cyclopropyl-ethyl}-[1,2,4]oxadiazol-5-yl)-pyrazol-1-yl]-2-methyl-propan-2-ol], the 50% inhibitory concentration (IC50) turned out to be 39 nM in test [1] and 2.2 nM in test [2].
On to `Cn1cc(-c2nc(C(C)(c3ccc(-c4cnc5c(c4)CCN5)cc3)C3CC3)no2)cn1` (stereo not shown) [Example 256, 5-(4-{1-Cyclopropyl-1-[5-(1-methyl-1H-pyrazol-4-yl)-[1,2,4]oxadiazol-3-yl]-ethyl}-phenyl)-2,3-dihydro-1H-pyrrolo[2,3-b]pyridine], for which the IC50 in test [1] turned out to be 51 nM; in test [2], 4.5 nM.
With `CC(C)C(C)(c1ccc(-c2cnc(N)nc2)cc1)c1noc(-c2cnn(CC(C)(C)C(=O)O)c2)n1` (stereo not shown) [Example 164, 3-[4-(3-{2-[4-(2-aminopyrimidin-5-yl)phenyl]-3-methylbutan-2-yl}-1,2,4-oxadiazol-5-yl)-1H-pyrazol-1-yl]-2,2-dimethylpropanoic acid], the IC50 in test [1] was found to be 2700 nM; in test [2] it was 1.4 nM.
Take `C[C@@](c1ccc(-c2cnc(N)nc2)cc1)(c1noc(-c2cnn(CCN)c2)n1)C1CC1` [Example 190, 5-[4-((R)-1-{5-[1-(2-Amino-ethyl)-1H-pyrazol-4-yl]-[1,2,4]oxadiazol-3-yl}-1-cyclopropyl-ethyl)-phenyl]-pyrimidin-2-ylamine]: the IC50 came out at 230 nM in test [1] and 5.9 nM in test [2].
Consider `CN(C)C(=O)Cn1cc(-c2nc(C(C)(c3ccc(-c4cnc(NC5CC5)nc4)cc3)C3CC3)no2)cn1` (stereo not shown) [Example 250, 2-[4-(3-{1-Cyclopropyl-1-[4-(2-cyclopropylamino-pyrimidin-5-yl)-phenyl]-ethyl}[1,2,4]oxadiazol-5-yl)-pyrazol-1-yl]-N,N-dimethyl-acetamide], for which the values for the half-inhibitory concentration (IC50) in test [1] and in test [2] were above 5000 nM and 470 nM, respectively.
